For one assay, the system named is U937 cells. In words: U937 cell necroptosis assay (TNFa + zVAD, CellTiter-Glo). Type of assay: cell-based, human. In a few lines: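 Necroptosis was induced with TNFa at 2 ng/mL final for 18 h at 37 °C, following 1 h compound pre-incubation in the presence of zVAD-fmk (60 uM for U937 plating medium, 40 uM for L929 medium). Luminescent CellTiter-Glo signal gave relative cell survival.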

The target in the next assay is RIPK1 (Homo sapiens (Human), UniProt Q13546). In words: RIPK1 ADP-Glo biochemical kinase assay. On the procedure:
The final reaction volume was 5.0ul.
Adding 5 μl of ADP-Glo™ terminated the reaction.
On the technique in general: ADP-Glo turns the ADP formed in a reaction into a luminescent signal.

The subject of the next assay is L929 cells. In words: L929 cell necroptosis assay (TNFa + zVAD, CellTiter-Glo). Type of assay: cell-based, murine. In a few lines: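 Necroptosis was read as CellTiter-Glo luminescence 18 hours after TNFa stimulation at 37° C, 5% CO2. Prior to that, L929 cells (10K/well, plated 18 h) received fresh medium with 40 uM zVAD-fmk plus 4-fold serially diluted compound.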
On the technique in general: ATP-based viability assays read luminescence as a measure of living cells.

[1] abbreviates: Homo sapiens, U-937, U937 cells, TNFa + zVAD, read-out: U937 Zvad TNF CTG Recovery, U937, TNFa + zVAD (IC50).
Where [2] appears, read: read-out: RIPK1 ADP-Glo Kinase (IC50).
The mark [3] stands for this setting: Mus musculus, L929, L929 cells, TNFa + zVAD, read-out: L929-CTG-recovery, L929, TNFa + zVAD (IC50).

Where two headings read alike, the source gives them in different places.

Chain of RIPK1 (Q13546 whole entry, species assumed): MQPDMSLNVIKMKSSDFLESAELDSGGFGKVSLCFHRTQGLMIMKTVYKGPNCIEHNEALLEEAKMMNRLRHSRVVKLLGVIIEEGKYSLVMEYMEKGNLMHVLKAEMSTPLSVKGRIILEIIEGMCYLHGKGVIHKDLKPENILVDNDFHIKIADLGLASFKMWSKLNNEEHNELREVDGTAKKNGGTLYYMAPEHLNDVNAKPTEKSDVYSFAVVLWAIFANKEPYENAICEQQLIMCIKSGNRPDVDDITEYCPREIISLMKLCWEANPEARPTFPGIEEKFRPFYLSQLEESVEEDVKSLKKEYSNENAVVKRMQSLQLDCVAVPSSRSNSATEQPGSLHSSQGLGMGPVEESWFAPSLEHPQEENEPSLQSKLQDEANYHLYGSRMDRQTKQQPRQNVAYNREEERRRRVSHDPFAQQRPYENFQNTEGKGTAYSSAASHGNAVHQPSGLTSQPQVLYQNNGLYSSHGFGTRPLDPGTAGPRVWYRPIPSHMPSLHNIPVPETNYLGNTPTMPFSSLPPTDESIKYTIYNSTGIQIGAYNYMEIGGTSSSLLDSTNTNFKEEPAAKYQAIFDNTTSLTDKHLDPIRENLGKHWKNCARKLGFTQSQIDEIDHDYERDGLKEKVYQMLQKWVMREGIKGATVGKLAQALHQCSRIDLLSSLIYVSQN

On to `Cc1c(Cc2ccccc2)cnn1C(=O)N[C@H]1COc2ccc(C#CC(C)(C)O)cc2N(C)C1=O` [Compound I-220, (S)-4-Benzyl-N-(7-(3-hydroxy-3-methylbut-1-yn-1-yl)-5-methyl-4-oxo-2,3,4,5-tetrahydrobenzo[b][1,4]oxazepin-3-yl)-5-methyl-1H-pyrazole-1-carboxamide], for which the IC50 (commonly the midpoint of a concentration-inhibition curve) in the assay on U937 cells (setting [1]) was 8.9 nM; at RIPK1 (setting [2]), 35.5 nM; with L929 cells (setting [3]) it was 1920 nM.
For `CN1C(=O)[C@@H](NC(=O)n2cc(Cc3ccccc3)cn2)COc2ccc(C#Cc3cccnc3)cc21` [Compound I-214, (S)-4-Benzyl-N-(5-methyl-4-oxo-7-(pyridin-3-ylethynyl)-2,3,4,5-tetrahydrobenzo[b][1,4]oxazepin-3-yl)-1H-pyrazole-1-carboxamide], the IC50 with U937 cells (setting [1]) is 4 nM; at RIPK1 (setting [2]), 76.2 nM; in the assay with L929 cells (setting [3]) it was 352 nM.
In the case of `CN1C(=O)[C@@H](NC(=O)c2ncn(Cc3ccccc3)n2)COc2cc(CN3CCn4nc(C(F)(F)F)nc4C3)ccc21` [Compound I-67, (S)-1-benzyl-N-(5-methyl-4-oxo-8-((2-(trifluoromethyl)-5,6-dihydro-[1,2,4]triazolo[1,5-a]pyrazin-7(8H)-yl)methyl)-2,3,4,5-tetrahydrobenzo[b][1,4]oxazepin-3-yl)-1H-1,2,4-triazole-3-carboxamide], the half-inhibitory concentration (IC50) amounted to 15.2 nM with U937 cells (setting [1]), 41.5 nM on RIPK1 (setting [2]) and 8.5 nM in the assay with L929 cells (setting [3]).
The like results for `CN1C(=O)[C@@H](NC(=O)c2cc(Oc3ccc(C#N)cc3)ccn2)COc2ccc(C#CC(C)(C)O)cc21` [II-18, (S)-4-(4-cyanophenoxy)-N-(7-(3-hydroxy-3-methylbut-1-yn-1-yl)-5-methyl-4-oxo-2,3,4,5-tetrahydrobenzo[b][1,4]oxazepin-3-yl)picolinamide] were, in that order, 286 nM, 51.8 nM and 6640 nM.
Taken in the same sequence, the figures for `CN1C(=O)[C@@H](NC(=O)c2cc(Oc3ccccc3)ccn2)COc2ccc(C#CC3(O)C[S+]([O-])C3)cc21` (stereo partly drawn) [Compound I-208, (S)—N-(7-((3-Hydroxy-1-oxidothietan-3-yl)ethynyl)-5-methyl-4-oxo-2,3,4,5-tetrahydrobenzo[b][1,4]oxazepin-3-yl)-4-phenoxypicolinamide] were 0.6 nM, 17.2 nM and 97.5 nM.
For `COC1(C#Cc2ccc3c(c2)N(C)C(=O)[C@@H](NC(=O)c2cc(Oc4ccccc4)ccn2)CO3)COC1` [Compound I-128, (S)—N-(7-((3-methoxyoxetan-3-yl)ethynyl)-5-methyl-4-oxo-2,3,4,5-tetrahydrobenzo[b][1,4]oxazepin-3-yl)-4-phenoxypicolinamide], the figures for the 50% inhibitory concentration (IC50) in the assay with U937 cells (setting [1]), on RIPK1 (setting [2]) and in the assay on L929 cells (setting [3]) were 0.6 nM, 19.7 nM and 42.2 nM, respectively.
With `CN1C(=O)[C@@H](NC(=O)c2cc(Oc3ccccc3)ccn2)COc2ccc(C#CC(C)(C)CO)cc21` [Compound I-109, (S)—N-(7-(4-hydroxy-3,3-dimethylbut-1-yn-1-yl)-5-methyl-4-oxo-2,3,4,5-tetrahydrobenzo[b][1,4]oxazepin-3-yl)-4-phenoxypicolinamide], the values for the IC50 with U937 cells (setting [1]), against RIPK1 and in the assay with L929 cells (setting [3]) were 0.4 nM, 32.1 nM and 24.3 nM, respectively.
For `CN1C(=O)[C@@H](NC(=O)c2cc(OC3CCC3)ccn2)COc2ccc(C#CC(C)(C)O)cc21` [Compound I-152, (S)-4-cyclobutoxy-N-(7-(3-hydroxy-3-methylbut-1-yn-1-yl)-5-methyl-4-oxo-2,3,4,5-tetrahydrobenzo[b][1,4]oxazepin-3-yl)picolinamide], the IC50 worked out at 39.1 nM with U937 cells (setting [1]), 10.3 nM at RIPK1 (setting [2]) and 2510 nM in the assay with L929 cells (setting [3]).
As to `CN1C(=O)[C@@H](NC(=O)c2n[nH]c(Cc3ccccc3)n2)COc2ccc(C#C[Si](C)(C)C)cc21` [Compound I-97, (S)-5-benzyl-N-(5-methyl-4-oxo-7-((trimethylsilyl)ethynyl)-2,3,4,5-drobenzo[b][1,4]oxazepin-3-yl)-1H-1,2,4-triazole-3-carboxamide], the IC50 stood at 1.7 nM in the assay on U937 cells (U937 cells, TNFa + zVAD, read-out: U937 Zvad TNF CTG Recovery, U937, TNFa + zVAD (IC50)); 85.8 nM on RIPK1 (setting [2]); 0.9 nM with L929 cells (L929 cells, TNFa + zVAD, read-out: L929-CTG-recovery, L929, TNFa + zVAD (IC50)).
As to `CN1C(=O)[C@@H](NC(=O)c2cc(-c3ccccc3)ccn2)COc2ccc(C#CC(C)(C)O)cc21` [II-20, (S)—N-(7-(3-hydroxy-3-methylbut-1-yn-1-yl)-5-methyl-4-oxo-2,3,4,5-tetrahydrobenzo[b][1,4]oxazepin-3-yl)-4-phenylpicolinamide], the IC50 in the assay with U937 cells (Homo sapiens, U-937, read-out: U937 Zvad TNF CTG Recovery, U937, TNFa + zVAD (IC50), U937 cells, TNFa + zVAD) was determined as 31.6 nM; at RIPK1 (setting [2]), 40.3 nM; in the assay on L929 cells (Mus musculus, L929, read-out: L929-CTG-recovery, L929, TNFa + zVAD (IC50), L929 cells, TNFa + zVAD) it was 14600 nM.
As to `CN1C(=O)[C@@H](NC(=O)c2n[nH]c(Cc3ccccc3)n2)COc2ccc(CN3CCN(c4ccncc4)CC3)cc21` [Compound I-20, (S)-5-benzyl-N-(5-methyl-4-oxo-7-((4-(pyridin-4-yl)piperazin-1-yl)methyl)-2,3,4,5-tetrahydrobenzo[b][1,4]oxazepin-3-yl)-1H-1,2,4-triazole-3-carboxamide], the results for the IC50 with U937 cells (setting [1]), on RIPK1 (setting [2]) and in the assay on L929 cells (setting [3]) were 13.6 nM, 153 nM and 53400 nM, respectively.
Taken in the same sequence, the figures for `CN1C(=O)[C@@H](NC(=O)c2cc(Oc3cccc(C#N)c3)ccn2)COc2cc(C#CC(C)(C)O)ccc21` [II-21, (S)-4-(3-cyanophenoxy)-N-(8-(3-hydroxy-3-methylbut-1-yn-1-yl)-5-methyl-4-oxo-2,3,4,5-tetrahydrobenzo[b][1,4]oxazepin-3-yl)picolinamide] were 14.3 nM, 40.9 nM and 3440 nM.
Regarding `CN1CCC2(CC1)CCN(c1ccc3c(c1)N(C)C(=O)[C@@H](NC(=O)c1cc(Oc4ccccc4)ccn1)CO3)CC2` [II-27, (S)—N-(5-Methyl-7-(9-methyl-3,9-diazaspiro[5.5]undecan-3-yl)-4-oxo-2,3,4,5-tetrahydrobenzo[b][1,4]oxazepin-3-yl)-4-phenoxypicolinamide], the IC50 came to 63.3 nM with U937 cells (setting [1]); 27.9 nM at RIPK1 (setting [2]); 10400 nM with L929 cells (Mus musculus, L929 cells, TNFa + zVAD, read-out: L929-CTG-recovery, L929, TNFa + zVAD (IC50)).
Regarding `CN1C(=O)[C@@H](NC(=O)n2cc(Cc3ccccc3)cn2)COc2ccc(C#CC3(O)CCC3)cc21` [Compound I-219, (S)-4-Benzyl-N-(7-((1-hydroxycyclobutyl)ethynyl)-5-methyl-4-oxo-2,3,4,5-tetrahydrobenzo[b][1,4]oxazepin-3-yl)-1H-pyrazole-1-carboxamide], the IC50 in the assay on U937 cells (setting [1]) is 0.6 nM; at RIPK1 (setting [2]), 28.4 nM; in the assay on L929 cells (setting [3]) it was 23.6 nM.
Regarding `CC(=O)N1CCC(O)(C#Cc2ccc3c(c2)N(C)C(=O)[C@@H](NC(=O)c2cc(Oc4ccc(F)cc4)ccn2)CO3)CC1` [Compound I-134, (S)—N-(7-((l-acetyl-4-hydroxypiperidin-4-yl)ethynyl)-5-methyl-4-oxo-2,3,4,5-tetrahydrobenzo[b][1,4]oxazepin-3-yl)-4-(4-fluorophenoxy)picolinamide], the results for the 50% inhibitory concentration (IC50) in the assay with U937 cells (setting [1]), on RIPK1 (setting [2]) and in the assay on L929 cells (setting [3]) were 27.4 nM, 52.8 nM and 608 nM, respectively.
Consider `CN1C(=O)[C@@H](NC(=O)c2ncn(Cc3ccccc3)n2)COc2ccc(CN3CCn4ncnc4C3)cc21` [Compound I-25, (S)-1-benzyl-N-(7-((5,6-dihydro-[1,2,4]triazolo[1,5-a]pyrazin-7(8H)-yl)methyl)-5-methyl-4-oxo-2,3,4,5-tetrahydrobenzo[b][1,4]oxazepin-3-yl)-1H-1,2,4-triazole-3-carboxamide], for which the figures for the IC50 in the assay with U937 cells (setting [1]), on RIPK1 (setting [2]) and in the assay on L929 cells (setting [3]) were 2.7 nM, 51 nM and 490 nM, respectively.
The like results for `CN1C(=O)[C@@H](NC(=O)n2cc(Cc3ccc(F)cc3)cn2)COc2ccc(C#CC3(O)CC4(COC4)C3)cc21` [Compound I-225, (S)-4-(4-Fluorobenzyl)-N-(7-((6-hydroxy-2-oxaspiro[3.3]heptan-6-yl)ethynyl)-5-methyl-4-oxo-2,3,4,5-tetrahydrobenzo[b][1,4]oxazepin-3-yl)-1H-pyrazole-1-carboxamide] were, in that order, 0.5 nM, 22.7 nM and 32.5 nM.
`CN1C(=O)[C@@H](NC(=O)c2cc(Oc3ccccc3)ccn2)COc2ccc(C#CC3CCCN3)cc21` (stereo partly drawn) [II-39, N-((3S)-5-methyl-4-oxo-7-(pyrrolidin-2-ylethynyl)-2,3,4,5-tetrahydrobenzo[b][1,4]oxazepin-3-yl)-4-phenoxypicolinamide]: the IC50 in the assay on U937 cells (setting [1]) amounted to 1.8 nM; on RIPK1 (setting [2]) it was 23 nM; with L929 cells (setting [3]), 1350 nM.
Taken in the same sequence, the figures for `COC(=O)C(C)(C)C#Cc1ccc2c(c1)N(C)C(=O)[C@@H](NC(=O)c1n[nH]c(Cc3ccccc3)n1)CO2` [Compound I-76, methyl (S)-4-(3-(5-benzyl-1H-1,2,4-triazole-3-carboxamido)-5-methyl-4-oxo-2,3,4,5-tetrahydrobenzo[b][1,4]oxazepin-7-yl)-2,2-dimethylbut-3-ynoate] were 18.1 nM, 44.9 nM and 2.4 nM.

Source of the values: patent US11407736B2 (priority 2019, dated 2022).
